For orientation: IC50 means the concentration needed to halve the response being measured. Lower therefore signals greater potency.

Consider 1 compound from paper PMC10508264, “Exploring the antioxidant, antimicrobial, cytotoxic and biothermodynamic properties of novel morpholine derivative bioactive Mn(II), Co(II) and Ni(II) complexes – combined experimental and theoretical measurements towards DNA/BSA/SARS-CoV-2 3CL^Pro” (RSC Medicinal Chemistry, 2023).

Holding throughout (type): cell-based, human
One test relates to MCF-7. In words: MTT cell viability assay, MCF-7. The note with it: MCF-7, 72 h of exposure. In general terms: Tetrazolium dyes change colour on reduction, which living cells bring about.
The test system of a further test is A549. In words: MTT cell viability assay, A549. The following applies: A549, 72 h of exposure.
A further test deals with NHDF. In words: MTT cell viability assay, NHDF. The following applies: NHDF normal cells, 72 h of exposure. As for the experimental part: Cellular viability or metabolic properties can be measured using the MTT assay, which is a powerful and consistent method for cytotoxic properties. […] As per the colorimetric approach, the IC50 values of all compounds were evaluated via the percentage of cell viability or inhibition of growth.[128] […] However, complexes (2) and (3) were exposed to similar cytotoxic potential as the others,[129] which induces apoptosis due to their ability to produce ROS more efficiently than the free ligand. […] The cytotoxic effectiveness is dependent upon the DNA binding modalities, the structure–activity relationship, the drug concentrations, and the incubation period exposure.[130] […] Coordination between the ligands and metal ions results in charge equilibration, which diminishes the polarity of the metal ions and also causes the ability of the test complexes to pass via the cell membrane lipid layer in accordance with Tweedy's chelation theory. Thus, it inhibits the synthesis of cell-wall/protein/nucleic acid. Additionally, the results of DNA binding tests using these complexes, including gel electrophoresis, UV-vis spectral titration, hydrodynamics, emission, and CV findings, were in good agreement with the findings of cytotoxicity.[131] Expressions eqn (44) and (45) were applied to measure the percentage of growth inhibition and cell viability (Table 10). In this case, complexes (2) and (3) have been proven to have greater biological efficiency than the others. Cytotoxicity depends on not only the hydrophilicity or lipophilicity and permeability, which only assist the crossing of the cell membrane but are not responsible for cell death, but also on several other factors, including the Lewis acid character, overall stability, solubility, conductivity, compatibility, length of the metal–ligand bond, overall charge, electron density, reduction potential, dipole moment, intermolecular hydrogen bonds, proton transfer equilibrium, and coordination environment. These significant elements might also contribute to the increased biological activity. Moreover, cobalt is also generally not considered to be a very toxic element, and its coordination complexes have fascinating redox and magnetic characteristics that fit them for a remarkable range of biological and medical uses. […] Moreover, it is possible to intelligently adjust these factors to successfully target a desired pathway or biomolecule. Designing such well-controlled and selective cobalt-based therapeutics may benefit from a mechanistic understanding of the varied bioactivities of cobalt complexes. Thus, knowing the mechanism of action can direct the advancement of prospective cobalt treatments to clinical trial.[133]
2.5. Assessment of in-vitro antimicrobial properties
bacteria and 7 days for fungal strains.

Another test deals with HepG2. In words: MTT cell viability assay, HepG2. The following applies: HepG2, 72 h of exposure.

On to `N.N.[Cl][Pt][Cl]` [Cisplatin, cisplatin, reference compound], for which the IC50 in the test on MCF-7 stood at 20.2 ± 1 µM; with A549 it was 31.9 ± 1.6 µM; in the test on NHDF, 26.9 ± 1.3 µM; in the test on HepG2, 22.9 ± 1.1 µM.
